Laboratory results from US6384051B1, “Method of treating or inhibiting colonic polyps” (American Cyanamid Company, priority 2000, dated 2002).
Structures can show the parent of a compound that is named as a salt.

SMILES | melting point
COc1cc2c(Nc3ccc(Cl)cc3F)c(C#N)cnc2cc1OCc1ccccc1 (as salt: hydrochloride) [Example 322, 7-Benzyloxy-4-(4-chloro-2-fluoro-phenylamino)-6-methoxy-quinoline-3-carbonitrile] | 241 to 243 °C
N#Cc1cnc2ccc(NC(=O)C#CCO)cc2c1Nc1cccc(Br)c1 [Example 57, N-[4-[(3-Bromophenyl)amino]-3-cyano-6-quinolinyl]-4-hydroxy-2-butynamide] | 253 to 254 °C (dec.)
N#Cc1cnc2ccc(NC(=O)C#CCN3CCOCC3)cc2c1Nc1cccc(Br)c1 [Example 58, N-[4-[(3-Bromophenyl)amino]-3-cyano-6-quinolinyl]-4-morpholino-2-butynamide] | 112 to 115 °C
CN(C)CC#CC(=O)Nc1ccc2ncc(C#N)c(Nc3cccc(Br)c3)c2c1 [Example 59, N-[4-[(3-Bromophenyl)amino]-3-cyano-6-quinolinyl]-4-dimethylamino-2-butynamide] | 114 to 118 °C
CCN(CC)CC#CC(=O)Nc1ccc2ncc(C#N)c(Nc3cccc(Br)c3)c2c1 [Example 187, N-[4-[(3-Bromophenyl)amino]-3-cyano-6-quinolinyl]-4-diethylamino-2-butynamide] | 133 to 135 °C
CCN1CCN(CC#CC(=O)Nc2ccc3ncc(C#N)c(Nc4cccc(Br)c4)c3c2)CC1 [Example 188, N-[4-[(3-Bromophenyl)amino]-3-cyano-6-quinolinyl]-4-(N-ethylpiperazino)-2-butynamide] | 161 °C (dec.)
CCN(CC)CC#CC(=O)Nc1ccc2ncc(C#N)c(Nc3ccc(F)c(Cl)c3)c2c1 [Example 189, N-[4-[(3-Chloro-4-fluorophenyl)amino]-3-cyano-6-quinolinyl]-4-diethylamino-2-butynamide] | 117 to 120 °C
CN1CCN(CC#CC(=O)Nc2ccc3ncc(C#N)c(Nc4cccc(Br)c4)c3c2)CC1 [Example 190, N-[4-[(3-Bromophenyl)amino]-3-cyano-6-quinolinyl]-4-(N-methylpiperazino)-2-butynamide] | 190 °C (dec.)
CC(C)N(C)CC#CC(=O)Nc1ccc2ncc(C#N)c(Nc3cccc(Br)c3)c2c1 [Example 191, N-[4-[(3-Bromophenyl)amino]-3-cyano-6-quinolinyl]-4-(N-isopropyl-N-methylamino)-2-butynamide] | 124 to 126 °C
CC(C)N(CC#CC(=O)Nc1ccc2ncc(C#N)c(Nc3cccc(Br)c3)c2c1)C(C)C [Example 192, N-[4-[(3-Bromophenyl)amino]-3-cyano-6-quinolinyl]-4-diisopropylamino-2-butynamide] | 130 °C (dec.)
CN(C)CC#CC(=O)Nc1ccc2ncc(C#N)c(Nc3ccc(F)c(Cl)c3)c2c1 [Example 193, N-[4-[(3-Chloro-4-fluorophenyl)amino]-3-cyano-6-quinolinyl]-4-dimethylamino-2-butynamide] | 225 °C (dec.)
COCC#CC(=O)Nc1ccc2ncc(C#N)c(Nc3ccc(F)c(Cl)c3)c2c1 [Example 194, N-[4-[-(3-Chloro-4-fluorophenyl)amino]-3-cyano-6-quinolinyl]-4-methoxy-2-butynamide] | 170 to 171 °C
N#Cc1cnc2ccc(N)cc2c1Nc1ccc(F)c(Br)c1 [Example 196, 6-amino-4-[(3-Bromo-4-fluorophenyl)amino]-3-quinolinecarbonitrile] | 210 to 212 °C
CN(C)CC#CC(=O)Nc1ccc2ncc(C#N)c(Nc3ccc(F)c(Br)c3)c2c1 [Example 197, N-[4-[(3-Bromo-4-fluorophenyl)amino]-3-cyano-6-quinolinyl]-4-dimethylamino-2-butynamide] | 228 to 231 °C
COc1cc2ncc(C#N)c(Nc3ccc(Cl)cc3F)c2cc1OC [Example 228, 4-(4-Chloro-2-fluoro-phenylamino)-6,7-dimethoxy-quinoline-3-carbonitrile] | 139 to 141 °C
COc1cc2c(Nc3ccc(C)c(O)c3)c(C#N)cnc2c(OC)c1OC [Example 233, 4-(3-Hydroxy-4-methyl-phenylamino)-6,7,8-trimethoxy-quinoline-3-carbonitrile] | 200 °C (dec.)
COc1cc2c(Nc3ccc(Cl)cc3F)c(C#N)cnc2c(OC)c1OC [Example 234, 4-(4-Chloro-2-fluoro-phenylamino)-6,7,8-trimethoxy-quinoline-3-carbonitrile] | 166 to 168 °C
COc1cc2c(Nc3cc(O)c(Cl)cc3F)c(C#N)cnc2c(OC)c1OC [Example 244, 4-(4-Chloro-2-fluoro-5-hydroxy-phenylamino)-6,7,8-trimethoxy-quinoline-3-carbonitrile] | 223 to 225 °C
COc1cccc2c(Nc3c(F)cc(F)cc3F)c(C#N)cnc12 [Example 280, 8-Methoxy-4-(2,4,6-trifluoro-phenylamino)-quinoline-3-carbonitrile] | 297 °C (dec.)
COc1ccc2c(Nc3ccc(C)c(O)c3)c(C#N)cnc2c1 [Example 281, 4-(3-Hydroxy-4-methyl-phenylamino)-7-methoxy-quinoline-3-carbonitrile] | > 250 °C
COc1ccc2c(Nc3cc(O)c(Cl)cc3F)c(C#N)cnc2c1 [Example 282, 4-(4-Chloro-2-fluoro-5-hydroxy-phenylamino)-7-methoxy-quinoline-3-carbonitrile] | 240 °C (dec.)

Further lines, results first:

melting point | SMILES
201 to 205 °C | N#Cc1cnc2cc3c(cc2c1Nc1cccc(Br)c1)OCO3 [Example 40, 8-[(3-Bromophenyl)amino]-[1,3]-dioxolo[4,5-g]quinoline-7-carbonitrile]
190 to 193 °C | COc1cc2ncc(C#N)c(Nc3cccc(C(F)(F)F)c3)c2cc1OC [Example 42, 4-[(3-Trifluoromethylphenyl)amino]-6,7-dimethoxy-3-quinolinecarbonitrile]
282 to 285 °C | COc1cc2ncc(C#N)c(Nc3ccc(F)cc3)c2cc1OC [Example 46, 4-[(4-Fluorophenyl)amino]-6,7-dimethoxy-3-quinolinecarbonitrile]
250 to 255 °C | COc1cc2ncc(C#N)c(Nc3cccc(CO)c3)c2cc1OC [Example 48, 4-[(3-(hydroxymethyl)phenyl)amino]-6,7-dimethoxy-3-quinolinecarbonitrile]
187 to 190 °C | COc1cc2ncc(C#N)c(Oc3cccc(Br)c3)c2cc1OC [Example 49, 4-(3-Bromophenoxy)-6,7-dimethoxy-3-quinolinecarbonitrile]
198 to 202 °C (dec.) | COCC#CC(=O)Nc1ccc2ncc(C#N)c(Nc3cccc(Br)c3)c2c1 [Example 60, N-[4-[(3-Bromophenyl)amino]-3-cyano-6-quinolinyl]-4-methoxy-2-butynamide]
142 to 144 °C | COc1cc2c(Nc3cccc(N(C)C)c3)c(C#N)cnc2c(OC)c1OC [Example 232, 4-(3-Dimethylamino-phenylamino)-6,7,8-trimethoxy-quinoline-3-carbonitrile]
240 to 242 °C | COc1ccc(OC)c2c(Nc3ccc(C)c(O)c3)c(C#N)cnc12 [Example 239, 4-(3-Hydroxy-4-methyl-phenylamino)-5,8-dimethoxy-quinoline-3-carbonitrile]
72 to 74 °C | COc1ccc(OC)c2c(Nc3cccc(Br)c3)c(C#N)cnc12 [Example 240, 4-(3-Bromo-phenylamino)-5,8-dimethoxy-quinoline-3-carbonitrile]
211 to 213 °C | COc1cc2c(Nc3cccc(Br)c3)c(C#N)cnc2c(OC)c1OC [Example 241, 4-(3-Bromo-phenylamino)-6,7,8-trimethoxy-quinoline-3-carbonitrile]
103 to 105 °C | COc1ccc(OC)c2c(Nc3cccc(N(C)C)c3)c(C#N)cnc12 [Example 242, 4-(3-Dimethylamino-phenylamino)-5,8-dimethoxy-quinoline-3-carbonitrile]
240 °C (dec.) | COc1ccc(OC)c2c(Nc3cc(O)c(Cl)cc3F)c(C#N)cnc12 [Example 243, 4-(4-Chloro-2-fluoro-5-hydroxy-phenylamino)-5,8-dimethoxy-quinoline-3-carbonitrile]
255 to 257 °C | COc1cc2ncc(C#N)c(Nc3cccc(O)c3C)c2cc1OC [Example 245, 4-(3-Hydroxy-2-methyl-phenylamino)-6,7-dimethoxy-quinoline-3-carbonitrile]
245 to 247 °C | COc1cc2ncc(C#N)c(Nc3c(C)cccc3O)c2cc1OC [Example 246, 4-(2-Hydroxy-6-methyl-phenylamino)-6,7-dimethoxy-quinoline-3-carbonitrile]
253 to 255 °C | COc1cc2ncc(C#N)c(Nc3cccc(C(N)=O)c3)c2cc1OC [Example 247, 3-(3-Cyano-6,7-dimethoxy-quinolin-4-ylamino)-benzamide]
292 to 294 °C | COc1cc2ncc(C#N)c(Nc3ccc(C)c(Br)c3)c2cc1OC [Example 248, 4-(3-Bromo-4-methyl-phenylamino)-6,7-dimethoxy-quinoline-3-carbonitrile]
230 to 232 °C | COc1cc2ncc(C#N)c(Nc3ccc(O)c(Cl)c3)c2cc1OC [Example 249, 4-(3-Chloro-4-hydroxy-phenylamino)-6,7-dimethoxy-quinoline-3-carbonitrile]
210 to 212 °C | COc1cccc2c(Nc3cccc(Br)c3)c(C#N)cnc12 [Example 274, 4-[(3-Bromophenyl)amino]-8-methoxy-3-quinolinecarbonitrile]
127 °C (dec.) | COc1cccc2c(Nc3ccc(Cl)cc3F)c(C#N)cnc12 [Example 275, 4-(4-Chloro-2-fluoro-phenylamino)-8-methoxy-quinoline-3-carbonitrile]
222 to 225 °C | COc1cccc2c(Nc3cccc(N(C)C)c3)c(C#N)cnc12 [Example 277, 4-(3-Dimethylamino-phenylamino)-8-methoxy-quinoline-3-carbonitrile]
146 °C (dec.) | COc1cccc2c(Nc3ccc(Br)c(O)c3)c(C#N)cnc12 [Example 278, 4-(4-Bromo-3-hydroxy-phenylamino)-8-methoxy-quinoline-3-carbonitrile]
138 to 140 °C (dec.) | COc1ccc(Nc2c(C#N)cnc3c(OC)cccc23)cc1O [Example 279, 4-(3-Hydroxy-4-methoxy-phenylamino)-8-methoxy-quinoline-3-carbonitrile]
